Source: patent US20210040118A1, “IMMUNOMODULATORS, COMPOSITIONS AND METHODS THEREOF” (BETTA PHARMACEUTICALS CO., LTD, priority 2018, published 2021)
pIC50: −log10 of the molar value.

Molecular target: T1, PD-1/PD-L1 (Homo sapiens, UniProt Q9NZQ7)
T1 construct: Recombinant human PD-L1 protein (19-238) with a His-tag at the C-terminus; purchased AcroBiosystems PD1-H5229 (PD-L1); PD1-H5257 (PD-1)
Assay: PD-1/PD-L1 homogenous time-resolved fluorescence (HTRF) binding assay
Conditions: recombinant human PD-L1 (19-238) His-tag / human PD-1 (25-167) Fc tag, class symbols
Protocol: Resolved Fluorescence (HTRF) Binding Assay
The assays were conducted in a standard black 384-well polystyrene plate with a final volume of 20 μL. Inhibitors were first serially diluted in DMSO and then added to the plate wells before the addition of other reaction components. The final concentration of DMSO in the assay was 1%. The assays were carried out at 25° C. in the PBS buffer (pH 7.4) with 0.05% Tween-20 and 0.1% BSA. Recombinant human PD-L1 protein (19-238) with a His-tag at the C-terminus was purchased from AcroBiosy stems (PD1-H5229). Recombinant human PD-1 protein (25-167) with Fc tag at the C-terminus was also purchased from AcroBiosystems (PD1-H5257). PD-L1 and PD-1 proteins were diluted in the assay buffer and 10 μL was added to the plate well. Plates were centrifuged and proteins were preincubated with inhibitors for 40 min. The incubation was followed by the addition of […] of HTRF detection buffer supplemented with Europium cryptate-labeled anti-human IgG (PerkinElmer-AD0212) specific for Fc and anti-His antibody conjugated to SureLight®-Allophycocyanin (APC, PerkinElmer-AD0059H). After centrifugation, the plate was incubated at 25° C. for 60 min. Before reading on a PHERAstar FS plate reader (665 nm/620 nm ratio). Final concentrations in the assay were […] PD1, 10 nM PD-L1, 1 nM europium anti-human IgG and 20 nM anti-His-Allophycocyanin. IC50 determination was performed by fitting the curve of percent control activity versus the log of the inhibitor concentration using the GraphPad Prism 5.0 software.
Data obtained for the Example compounds using the PD-1/PD-L1 homogenous time-resolved fluorescence (HTRF) binding assay described in Example A is provided in Table 4.

T1 sequence (Q9NZQ7 19-238): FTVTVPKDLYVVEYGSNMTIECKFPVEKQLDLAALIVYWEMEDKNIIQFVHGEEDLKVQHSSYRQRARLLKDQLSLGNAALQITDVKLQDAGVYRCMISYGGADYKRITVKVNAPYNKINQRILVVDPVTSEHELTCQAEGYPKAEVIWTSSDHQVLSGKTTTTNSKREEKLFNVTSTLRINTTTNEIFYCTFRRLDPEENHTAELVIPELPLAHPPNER

Compared with O=C(c1nc2c(s1)CN(CC(F)(F)F)CC2)N1CCc2c(-c3cccc4c3CCN4C(=O)c3nc4c(s3)CN(CC(F)(F)F)CC4)cccc21 [Example 84, [4,4′-biindoline]-1,1′-diylbis((5-(2,2,2-trifluoroethyl)-4,5,6,7-tetrahydrothiazolo[5,4-c]pyridin-2-yl)methanone)], O=C(c1nc2c(s1)CN(CCF)CC2)N1CCc2c(-c3cccc4c3CCN4C(=O)c3nc4c(s3)CN(CCF)CC4)cccc21 [Example 87, [4,4′-biindoline]-1,1′-diylbis((5-(2-fluoroethyl)-4,5,6,7-tetrahydrothiazolo[5,4-c]pyridin-2-yl)methanone)] is higher in pIC50: 7.00 to 7.60 for the first, > 7.60 for the second. The second is the more potent here.

Cc1c(NC(=O)c2ncc(CNCCO)s2)cccc1-c1cccc(NC(=O)c2ncc(CNCCO)s2)c1C [Example 7, N,N′-(2,2′-dimethyl-[1,1′-biphenyl]-3,3′-diyl)bis(5-(((2-hydroxyethyl)amino)methyl)thiazole-2-carboxamide)] and O=C(c1ncc(CNCCO)s1)N1CCc2c(-c3cccc4c3CCN4C(=O)c3ncc(CNCCO)s3)cccc21 [Example 70, [4,4′-biindoline]-1,1′-diylbis((5-(((2-hydroxyethyl)amino)methyl)thiazol-2-yl)methanone)] cannot be ordered by pIC50: > 7.60 for the first, > 7.60 for the second.

Cc1c(Nc2nccc3cc(CN4CC(O)C4)cnc23)cccc1-c1cccc(Nc2nccc3cc(CN4CC(O)C4)cnc23)c1C [Example 150, 1,1′-((((2,2′-dimethyl-[1,1′-biphenyl]-3,3′-diyl)bis(azanediyl))bis(1,7-naphthyridine-8,3-diyl))bis(methylene))bis(azetidin-3-ol)] and Cc1c(Nc2nccc3cc(CNCCO)cnc23)cccc1-c1cccc(Nc2nccc3cc(CNCC(=O)O)cnc23)c1C [Example 139, ((8-((3′-((3-(((2-hydroxyethyl)amino)methyl)-1,7-naphthyridin-8-yl)amino)-2,2′-dimethyl-[1,1′-biphenyl]-3-yl)amino)-1,7-naphthyridin-3-yl)methyl)glycine] cannot be ordered by pIC50: > 7.60 for the first, > 7.60 for the second.

CNC(=O)CN1CCc2nc(C(=O)N3CCc4c(-c5cccc6c5CCN6C(=O)c5nc6c(s5)CN(CC(=O)NC)CC6)cccc43)sc2C1 [Example 105, 2,2′-(([4,4′-biindoline]-1,1′-dicarbonyl)bis(6,7-dihydrothiazolo[5,4-c]pyridine-2,5(4H)-diyl))bis(N-methylacetamide)] and CN1CCc2nc(C(=O)N3CCc4c(-c5cccc6c5CCN6C(=O)c5nc6c(s5)CN(C)CC6)cccc43)sc2C1 [Example 83, [4,4′-biindoline]-1,1′-diylbis((5-methyl-4,5,6,7-tetrahydrothiazolo[5,4-c]pyridin-2-yl)methanone)] cannot be ordered by pIC50: > 7.60 for the first, > 7.60 for the second.

Cc1nc(C(=O)Nc2cccc(-c3cccc4c3CCN4C(=O)c3nc(C)c(CN[C@H](C(=O)O)C4CCOCC4)s3)c2)sc1CN[C@H](C(=O)O)C1CCOCC1 [Example 63, (S)-2-((2-(3-(1-(5-(((S)-carboxy(tetrahydro-2H-pyran-4-yl)methylamino)methyl)-4-methylthiazole-2-carbonyl)indolin-4-yl)phenylcarbamoyl)-4-methylthiazol-5-yl)methylamino)-2-(tetrahydro-2H-pyran-4-yl)acetic acid] and Cc1nc(C(=O)Nc2cccc(-c3cccc4c3CCN4C(=O)c3nc(C)c(CN4CCCC[C@H]4C(=O)O)s3)c2)sc1CN1CCCC[C@H]1C(=O)O [Example 62, (S)-1-((2-(3-(1-(5-(((S)-2-carboxypiperidin-1-yl)methyl)-4-methylthiazole-2-carbonyl)indolin-4-yl)phenylcarbamoyl)-4-methylthiazol-5-yl)methyl)piperidine-2-carboxylic acid] cannot be ordered by pIC50: > 7.60 for the first, > 7.60 for the second.

CN(CCO)Cc1cnc(C(=O)N2CCc3c(-c4cccc5c4CCN5C(=O)c4ncc(CN(C)CCO)s4)cccc32)s1 [Example 116, [4,4′-biindoline]-1,1′-diylbis((5-(((2-hydroxyethyl)(methyl)amino)methyl)thiazol-2-yl)methanone)] and O=C(c1ncc(CNCCO)s1)N1CCc2c(-c3cccc4c3CCN4C(=O)c3nc4c(s3)CNCC4)cccc21 [Example 99, (5-(((2-hydroxyethyl)amino)methyl)thiazol-2-yl)(1′-(4,5,6,7-tetrahydrothiazolo[5,4-c]pyridine-2-carbonyl)-[4,4′-biindolin]-1-yl)methanone] cannot be ordered by pIC50: > 7.60 for the first, > 7.60 for the second.

Cc1c(NC(=O)c2nnc(C3(NC(=N)N)CCC3)s2)cccc1-c1cccc(NC(=O)c2nnc(C3(NC(=N)N)CCC3)s2)c1C [Example 38, N,N′-(2,2′-dimethyl-[1,1′-biphenyl]-3,3′-diyl)bis(5-(1-guanidinocyclobutyl)-1,3,4-thiadiazole-2-carboxamide)] and Cc1c(NC(=O)c2nc3c(s2)CNCC3)cccc1-c1cccc(NC(=O)c2nc3c(s2)CN(C)CC3)c1Cl [Example 50, N-(2-chloro-2′-methyl-3′-(4,5,6,7-tetrahydrothiazolo[5,4-c]pyridine-2-carboxamido)biphenyl-3-yl)-5-methyl-4,5,6,7-tetrahydrothiazolo[5,4-c]pyridine-2-carboxamide] cannot be ordered by pIC50: > 7.60 for the first, > 7.60 for the second.

O=C(O)CN1C2CCC1c1sc(C(=O)N3CCc4c(-c5cccc6c5CCN6C(=O)c5nc6c(s5)C5CCC(C6)N5CC(=O)O)cccc43)nc1C2 [Example 110, 2,2′-(([4,4′-biindoline]-1,1′-dicarbonyl)bis(5,6,7,8-tetrahydro-4H-5,8-epiminocyclohepta[d]thiazole-2,9-diyl))diacetic acid] and O=C(c1nc2c(s1)CN(Cc1nn[nH]n1)CC2)N1CCc2c(-c3cccc4c3CCN4C(=O)c3nc4c(s3)CN(Cc3nn[nH]n3)CC4)cccc21 [Example 125, [4,4′-biindoline]-1,1′-diylbis((5-((2H-tetrazol-5-yl)methyl)-4,5,6,7-tetrahydrothiazolo[5,4-c]pyridin-2-yl)methanone)] cannot be ordered by pIC50: > 7.60 for the first, > 7.60 for the second.

O=C(Nc1cccc(-c2cccc(NC(=O)c3nc4c(s3)CNCC4)c2Cl)c1Cl)c1nc2c(s1)CNCC2 [Example 89, N,N′-(2,2′-dichloro-[1,1′-biphenyl]-3,3′-diyl)bis(4,5,6,7-tetrahydrothiazolo[5,4-c]pyridine-2-carboxamide)] and Cc1c(-c2cccc(N(C)C(=O)c3cc4c(s3)CCNC4)c2C)cccc1N(C)C(=O)c1cn2c(n1)CNCC2 [Example 34, N-(2,2′-dimethyl-3′-(N-methyl-5,6,7,8-tetrahydroimidazo[1,2-a]pyrazine-2-carboxamido)-[1,1′-biphenyl]-3-yl)-N-methyl-4,5,6,7-tetrahydrothieno[3,2-c]pyridine-2-carboxamide] cannot be ordered by pIC50: > 7.60 for the first, > 7.60 for the second.

With Cc1c(Nc2nccc3cc(CNCC(N)=O)cnc23)cccc1-c1cccc(Nc2nccc3cc(CNCC(N)=O)cnc23)c1C [Example 144, 2,2′-(((((2,2′-dimethyl-[1,1′-biphenyl]-3,3′-diyl)bis(azanediyl))bis(1,7-naphthyridine-8,3-diyl))bis(methylene))bis(azanediyl))diacetamide] the pIC50 was > 7.60.

Same assay, conditions: recombinant human PD-L1 (19-238) His-tag / human PD-1 (25-167) Fc tag, numeric values

Work on O=C(O)CN1CCc2nc(C(=O)N3CCc4c(-c5cccc6c5CCN6C(=O)c5nc6c(s5)CN(CC(=O)O)CC6)cccc43)sc2C1 [Example 103, 2,2′-(([4,4′-biindoline]-1,1′-dicarbonyl)bis(6,7-dihydrothiazolo[5,4-c]pyridine-2,5(4H)-diyl))diacetic acid] yielded a pIC50 of 9.43.
